Results as given in patent US20200270225A1, “Chiral Diacylhydrazine Ligands for Modulating the Expression of Exogenous Genes via an Ecdysone Receptor Complex” (Intrexon Corporation, priority 2007, published 2020).

Legend:
[1] = Solubility in pharmaceutical excipients, Assay 1 (qualitative); assay type: physicochemical
Description: The solubility of micronized R enantiomer and racemate of 2-Ethyl-3-methoxy-benzoic acid N′-(1-tert-butyl-butyl)-N′-(3,5-dimethyl-benzoyl)-hydrazide was assessed qualitatively in commercially-available excipients (FIG. 9). Initial solutions/suspensions of 10 mg/g (test article/excipient) in glass vials were prepared by sonication at room temperature for 15 minutes with swirling for 30 seconds at 5 minute intervals, followed by heating in an aluminum block at 50° C. for 12 minutes with swirling for 30 seconds at 3 minute intervals. Based on the appearance of this initial 10 mg/g excipient sample, a 2-4 point concentration continuum was scanned by up or down sampling at several of the following points: 5, 10, 15, 20, 30, 50 mg/g (test article/excipient). […] Photos of several of the preparations in clear glass vials were taken (not shown).

Microsomal metabolism = assay type: in vitro ADME, human; settings: 5 μM, 1.0 mg/mL microsomal protein, 1 mM NADPH, 60 minutes
Description: The test compounds were prepared as 5 μM solutions in DMSO (concentration less than 0.25%), methanol, or acctonitrile. Mixed gender human liver microsomes were pooled from a ≥10 donors, and incubated with 1 mM NADPH. The test compound was incubated at 37° C. in buffer containing 1.0 mg/mL of microsomal protein with 1 mM NADPH. At 0 and 60 minutes, the mixture was sampled and monitored by LC/MS/MS for the peak area corresponding to the test compound, with the range of 10-100%. The assay was run in duplicate (N=2 separate incubations). The data reported in FIG. 15 is percent remaining of testosterone standard and percent remaining of the test compound.

[2] = tested on: IL-12 transgene in transduced AdDCs; assay: In vitro IL-12 transgene induction by transduced AdDCs from healthy volunteers; assay type: cell-based, human; settings: observed in 2 out of the 3 AdDC preparations
Description: Immature DCs are harvested, counted and tested for viability. Approximately 6-7×10^7 DCs are transduced with the adenoviral vector at the optimal multiplicity of infection (the optimal MOI, between 500 and 1000, to be finalized) for the optimal viral adsorption time (between 2 h and 4 h, to be finalized). After transduction, the cells are washed repeatedly to remove any unadsorbed viral particles. Aliquots are set aside for sterility, endotoxin, mycoplasma, DC Phenotype and IL-12 transgene induction assays. The target dose of 5×10^7 cells is held at 4° C. in saline until release testing is complete.
The in vitro testing of the IL-12 transgene induction by the transduced AdDCs takes a minimum of two days for the results to be available and therefore IL-12 production in response to (R)-2-ethyl-3-methoxy-benzoic acid N′-(1-tert-butyl-butyl)-N′-(3,5-dimethyl-benzoyl)-hydrazide will not be a release criterion for the intratumoral injection of the AdDCs. […] Therefore, the in vitro IL-12 induction results are used for analysis of the treatment outcome. As such, the transduced AdDCs are used for injection after viral transduction and washing. Any left-over untransduced and transduced DCs are cryopreserved for future analysis as necessary.

## CCC[C@@H](N(NC(=O)c1cccc(OC)c1CC)C(=O)c1cc(C)cc(C)c1)C(C)(C)C [Example 1, (R)-3,5-Dimethyl-benzoic Acid N-(1-tert-butyl-butyl)-N′-(2-ethyl-3-methoxy-benzoyl)-hydrazide]
[1]; all tested excipients except neat polysorbate 80, 5-50 mg/g
  solubility in pharmaceutical excipients (qualitative): more soluble than racemate
[1]; neat polysorbate 80
  solubility in neat polysorbate 80 (qualitative): comparably soluble
Microsomal metabolism
  stability to metabolism in human liver microsomes, compared: slightly more stable
[2]
  induced IL-12 expression level: 80 ng/million cells/24 h
